This note sets out measurements from patent US20150191445A1, “ACYL-HYDRAZONE AND OXADIAZOLE COMPOUNDS, PHARMACEUTICAL COMPOSITIONS CONTAINING THE SAME AND USES THEREOF” (Universidade Federal de Santa Catarina, priority 2011, published 2015).

“Also recorded” adds a separate entry of the source.

Experiment [1] has as its system cell cycle regulatory proteins in Jurkat cells. Nature of the experiment: Western blot of cell cycle regulatory proteins. The experiment is classed as cell-based, human. The settings on record: 125 nM. On the procedure: (§1) The cells were incubated for 12 hours in fresh medium before experiments. Two million cells from the Jurkat line were incubated for 12 h, 18 h, 24 h and 30 h in RPMI-640 medium supplemented with 10% Fetal Bovine Serum (FCS) and 0.2% Penicillin/Streptomycin (PS) with a concentration of 125 nM of compound 07 or DMSO (vehicle).
The cells treated or not with compound 07 were lysed in buffer containing 50 mM Tris pH 7.7, 150 mM NaCl, 5 mM EDTA, 1% Sigma phosphatase inhibitor cocktail I, 1% Sigma phosphatase inhibitor cocktail II, 1% Sigma protease inhibitor cocktail II, 1% Igepal, 0.1% SDS, 0.5% sodium deoxycholate and 1 mM PMSF. After incubation for 30 min on ice and 3 cycles of freezing and thawing, extracts were centrifuged at 10,000 rpm for 20 min at 4° C. to sediment membrane debris. Of the supernatant, we proceeded with protein quantification by Bradford reagent (Biorad). The samples were boiled for 5 min with prior addition of β-mercaptoethanol and 100 μg of protein were subjected to acrylamide:bisacrylamide gel electrophoresis (39:1) 10% with SDS and electrotransferred to 0.45 μm nitrocellulose membrane (Schleicher & Schuell). […]
On the technique in general: In western blotting, separated proteins are transferred to a membrane and probed.

The test system of a further experiment is Jurkat cells. As to the kind of experiment: Cell cycle analysis, propidium iodide flow cytometry. The experiment is classed as cell-based, human. The settings on record: 125 nM, 18 h. On the procedure: as §1
The cells treated or not with compound 07 were fixed in 70% ethanol for 2 hours, washed in PBS and incubated for 15 min at 37° C. in 1 mL of Triton X-100 0.1% 0.2 mg/mL of RNAse and 20 μg/mL propidium iodide in PBS. 20,000 events were collected on FACSCalibur flow cytometer with red fluorescence quantification, excluding any cell aggregates by the standard width vs. red fluorescence peak area. The data deconvolution to obtain the percentage of cells in each phase of cell cycle was performed using ModFit software v2.0.
(Flow cytometry measures light scatter and fluorescence of single cells or particles in a stream.)

In experiment [2] the test system is human leukemic Jurkat cells and HEK. As to the kind of experiment: Screening of compounds by cell viability assay (MTT) in leukemic cells. The format is cell-based. The settings on record: leukemic cells of Jurkat and HEK strains. As for the experimental part:
RPMI-1640 medium with 10% FBS (fetal bovine serum), 100 IU/mL penicillin, 100 µg/mL streptomycin and incubated at 37° C. and 5% CO2. Cytotoxicity assays were performed according to the method described in the literature (Pieters, R.; et al. In vitro drug sensitivity of cells from children with leukemia using the MTT assay with improved culture conditions. Blood, 1990, 76, 2327-2336; Pieters, R.; et al. Relation of cellular drug resistance to long-term clinical outcome in childhood acute lymphoblastic leukaemia. Lancet, 1991, 338, 399-403 e Kaspers, G. J.; et al. In vitro cellular drug resistance and prognosis in newly diagnosed childhood acute lymphoblastic leukemia. Blood, 1997, 90, 2723). Cells were resuspended at a concentration of 3.75 10^5 cells/mL in culture medium as described. Eighty microliters of this suspension were seeded into plates with 96 round-bottom wells, containing 20 microliters of different concentrations of compound or vehicle alone. Each treatment was done in triplicate. […] After incubating overnight, absorbance reading at 570 nm was carried out. The percentage of cells surviving the treatment were calculated relative to the number of surviving cells in the medium without addition of the compounds in question (“negative control”). […]

Turning to `COc1cc(C(=O)NN=Cc2cccc3ccccc23)cc(OC)c1OC` [Compound 07], in experiment [1], the “expression of CDKs” value is “repression of the expression of CDK4 and to a lesser extent also of CDK6, shorter isoform of CDK2 and larger isoform of CDK9”. In addition, in experiment [1] (after 12 hours of treatment), the “phosphorylation of Chk2” value was “possible to detect the phosphorylation of Chk2 in Thr68”. Moreover, the “effect on cell cycle” value in the experiment with Jurkat cells is given as “cell cycle arrest in G2/M”. Further, the antileukemic activity entry in experiment [2] is “excellent antileukemic activity; also recorded: significant antileukemic activity”.
